Measurements taken from article PMC8480759, “Inhibitors of histone deacetylase 6 based on a novel 3-hydroxy-isoxazole zinc binding group” (Journal of Enzyme Inhibition and Medicinal Chemistry, 2021).

Assays:
[1] = system: acetylation levels of histone H3 (HDAC1 target) in DU145 cells; assay: Western blot of histone H3 acetylation in DU145 cells; type: cell-based, human; conditions: 24 h, 10 µM
Protocol: (§1) The results corroborate the inhibitory activity of 17, 23, 25 and 27 at concentrations lower than 10 µM. […] HDACs contribution to CRPC is known[20] and the possibility to arrest CRPC proliferation by acting on HDAC targets is expanding in the scientific literature[21]^,[22]. After administration of the selected compounds for 24 h at 10 µM concentration, the effect on the acetylation levels of histone H3 and α-tubulin (respectively, HDAC1 and HDAC6 targets) was investigated. […] Lastly, in the same cell line, the anti-proliferative effect was measured in dose and time dependent manner (Figure S4).
(§2) Figure S3. Western blotting analysis of the tested and reference compounds SAHA and Tubastatin A on acetylation levels of histone H3 and α-tubulin in DU145 cells. GAPDH and H4 were used as a loading control. Densitometric values were analyzed using ImageJ Software and are reported on the top of bands as the ratio between loading control and acetylated target.
(1 picture or pasted object on this page, not shown here) […]
1.4 Western blot analysis
The prostate cancer cell line DU145 (ATCC) was grown in RPMI medium (Euroclone, Milan, Italy) with 10% fetal bovine serum (Euroclone), 2 mM L-glutamine (Euroclone), and antibiotics (100 U/mL penicillin, […] streptomycin) (Euroclone). Cells were stimulated with drugs for […]
Total Protein Extraction and western blot
After the induction with the test compounds at the indicated times and concentrations, DU145 cells were then harvested, washed with phosphate-buffered saline (PBS) (Euroclone), and lysed for 15 min at 4 °C in lysis extraction buffer with protease and phosphatase inhibitors (50 mM Tris -HCl pH 8.0, 150 mM NaCl, 1% NP40, 10 mM sodium fluoride, 0.1 mM sodium orthovanadate, […] phenylmethylsulfonyl fluoride 58 (PMSF), 20 g/mL aprotinin, […] leupeptin, […] antipain, 10 mM p -nitrophenyl phosphate, […] pepstatin A and 20 nM okada ic acid). Cells were vortexed then centrifuged at 13000 rpm for 30 min at 4 °C. Bradford assay (Biorad, Italy) was used to quantify protein concentration. […] The immune complexes were first detected with horseradish peroxidase-conjugated species-specific secondary antiserum (Bio-Rad Laboratories, Milan, Italy), and then by an enhanced chemiluminescence reaction (Bio-Rad Laboratories, Milan, Italy). […]
were harvested and washed twice with cold 1× PBS and lysed in Triton extraction buffer (TEB; PBS containing 0.5% Triton X 100 (v/v), 2 mM PMSF, and 0.02% (w/v) NaN3) for 10 min on ice, with gentle stirring. […] The samples were then centrifuged at 2000 rpm for 10 min at 4 °C; the concentration of protein in the supernatant was determined […]
using a Bradford assay (Bio-Rad, CA, USA). […] Semi-quantitative analysis was performed using ImageJ software. […]

[2] = system: acetylation levels of α-tubulin (HDAC6 target) in DU145 cells; assay: Western blot of α-tubulin acetylation in DU145 cells; type: cell-based, human; conditions: 24 h, 10 µM
Protocol: as §1
as §2, with “target. […]” for “target.”
The resulting mixtures were incubated at 37 °C for 45min , after which 25 µL of 2X HDAC developer were added. Following incubation at RT for 15 min, fluorescence intensity was measured using a microplate reader (GloMax Discover System, Promega) at 365nm excitation and […] emission wavelengths.
IC50 values were calculated using the GraphPad Prism 6 program based on a log(inhibitor) vs response (variable slope) sigmoidal equation. […]

Compound | effect on acetylation levels of histone H3 [1] | effect on acetylation of α-tubulin [2]
Oc1cc(-c2ccc(NCc3ccccc3)cc2)on1 [Compound 23] | no effect | increased
Oc1cc(-c2ccc3c(c2)OCO3)on1 [Compound 25] | no effect | increased
